Key:
GLUT1 = biological target: T1, GLUT1 (Homo sapiens, UniProt P11166); experiment: cis-inhibition assay of [14C]-D-glucose uptake (GLUT1 affinity) in CAL 27 cells; type: cell-based; conditions: incubation time 5 min
T1 construct: host or cells: CAL 27
T1 sequence (P11166 1-492): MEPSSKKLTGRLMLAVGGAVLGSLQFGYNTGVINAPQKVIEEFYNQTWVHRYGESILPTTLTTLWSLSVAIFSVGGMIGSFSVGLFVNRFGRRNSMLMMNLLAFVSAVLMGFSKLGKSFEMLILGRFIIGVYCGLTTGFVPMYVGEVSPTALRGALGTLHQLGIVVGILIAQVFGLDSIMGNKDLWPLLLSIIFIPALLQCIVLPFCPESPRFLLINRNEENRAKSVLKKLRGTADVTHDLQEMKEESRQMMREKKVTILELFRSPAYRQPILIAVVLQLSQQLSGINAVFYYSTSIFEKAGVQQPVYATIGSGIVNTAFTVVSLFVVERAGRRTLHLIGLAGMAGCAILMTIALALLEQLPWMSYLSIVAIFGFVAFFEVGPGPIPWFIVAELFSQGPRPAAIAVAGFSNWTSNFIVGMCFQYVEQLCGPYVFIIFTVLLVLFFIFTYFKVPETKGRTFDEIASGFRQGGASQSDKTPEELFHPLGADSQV
Source text: GLUT affinity: In a strategy targeting the GLUTs, it is important to study whether the monosaccharide delivery agents will be able to compete for the transporters with the high D-glucose levels found in blood. For these purposes, we utilized our previously developed cis-inhibition assay in the CAL 27 cell line. In addition to having accurate protocols for assessment of GLUT-affinity, we have previously studied the GLUT1 expression and verified its function in the CAL 27 cell line. Thus, a strong foundation was available for the current study and we employed an identical protocol herein in the assessment of GLUT affinity, i.e., in assessing to which extent the delivery agents will be able to compete for the GLUTs against the natural substrate D-glucose.
(§1) The CAL 27 (ATCC CRL-2095) cells used in all assays were acquired from ATCC (Manassas, VA, USA) and cultured in Dulbecco’s Modified Eagle Medium (DMEM) supplemented with L-glutamine (2.0 mM), heat-inactivated fetal bovine serum (10%), and penicillin (50 U/mL)-streptomycin (50 μg/mL) at 37 °C with 5% CO2 and 95% relative humidity.
The GLUT1 affinity assay was conducted following our previously established protocol. Stock solutions of the glycoconjugates were prepared in DMSO. From the stock solutions, the samples employed in the study were prepared by diluting the stock solutions in glucose-free HBSS-buffer to reach concentrations of 0.1–1800 μM. The cells were incubated at RT for 5 min with glycoconjugates 1–4, BSH or BPA over the concentration range given above. The glucose-free HBSS buffer as such was used as a blank control. In more detail, the solutions included 1.8 μM ([…]) of [^14C]-D-glucose in 250 μL of glucose-free HBSS (Hanks’ balanced salt solution). Ice-cold buffer was used for quenching. Cell lysis was performed using 0.1 M NaOH (250 μL) and then mixed with an emulsifier safe cocktail (1.0 mL) (PerkinElmer, Waltham, MA, USA). The radioactivity was measured with a liquid scintillation counter (MicroBeta2 counter, PerkinElmer, Waltham, MA, USA), and the IC50 values were calculated through nonlinear regression analysis.

CAL 27 cells = experiment: Boron delivery capacity (boron uptake) by ICP-MS; type: cell-based, human; conditions: 10–400 μM, 5 min and 120 min, compared with BPA and BSH and within the series
Experimental: Boron delivery capacity: A central property of boron delivery agents is their boron delivery capacity. […] Herein, we studied the boron delivery capacity at two time points (5 min, and 120 min) over the concentration range of 10–400 μM (see summary in Figure 4). Our previously employed protocol was utilized in order to be able to compare the results to those obtained earlier. In short, after quenching of the incubation, washing, lysis, and digestion with nitric acid, the boron content could be determined by ICP-MS.
as §1
The boron uptake studies were performed according to our earlier reported protocol. The samples used in the boron uptake studies were prepared as described above for the affinity studies. The cells were preincubated. Glycoconjugates 1–4 at various concentrations (10–400 μM in 250 μL of HBSS) were added, and incubation continued for […] 120 min at RT. […] Milli-Q water (USF Elga Purelab Ultra, Veolia Water Technologies, High Wycombe, UK) was added to bring the sample volume to 10 mL, and the boron content was measured in triplicates using ICP-MS. […]

[1] = Plasma stability, mouse plasma; type: in vitro ADME; conditions: 50 μM
Experimental: These studies provide important insights into the stability and behavior of the delivery agent in a biological setting, which is a key factor at later stages of the development pipeline. The serum stability studies were performed in both human and mouse plasma at a set concentration of 50 μM over a time period of 24 h. Propantheline (5 μM) was utilized as a control substrate for validating the assay. […] In human plasma, the stability profile was distinct. […] While the boron delivery agent 4 does decompose in human plasma over time, the rate at which this occurs is acceptable when taking into account that the recommended guidelines for FDG imaging, thus tumor delivery, is between 55–75 min post administration. […]
10 mM working solutions of the test compound was prepared in DMSO and a 1 mM working solution of the control compound propantheline was prepared in acetonitrile. […] Peak area ratios were determined from extracted ion chromatograms. Percent compounds remaining at each time point were calculated by the following equation:Remaining Percentage t h (%) = Peak Area Ratio t h/Peak Area Ratio 0 h × 100 where Peak Area Ratio t h is the peak area ratio of control and test compound at t h; Peak Area Ratio 0 h is the peak area ratio of control and test compound at zero time point.

[2] = Plasma stability, human plasma; type: in vitro ADME; conditions: 50 μM
Experimental: These studies provide important insights into the stability and behavior of the delivery agent in a biological setting, which is a key factor at later stages of the development pipeline. The serum stability studies were performed in both human and mouse plasma at a set concentration of 50 μM over a time period of 24 h. Propantheline (5 μM) was utilized as a control substrate for validating the assay. […] In human plasma, the stability profile was distinct. […] While the boron delivery agent 4 does decompose in human plasma over time, the rate at which this occurs is acceptable when taking into account that the recommended guidelines for FDG imaging, thus tumor delivery, is between 55–75 min post administration. Nevertheless, the ortho-carboranylmethyl-substituent is likely to affect the pharmacokinetic properties of the delivery agents and thus comprehensive biodistribution studies will be needed in the future to assess these factors in more detail.
10 mM working solutions of the test compound was prepared in DMSO and a 1 mM working solution of the control compound propantheline was prepared in acetonitrile. 4 µL of working solutions was spiked to 796 µL of pre-incubated plasma to reach a final concentration of 50 µM or 5 µM. The final concentration of solvent was 0.5%. 50 µL aliquots of the spiked plasma were added into new tubes for 1, 4, 8 and 24 h and incubated at 37 °C water bath with shaking at 60 rpm. The assay was performed in duplicate. The reaction was stopped by adding 300 µL of RT quench solution (acetonitrile containing internal standards (IS, 100 nM Alprazolam, 500 nM Labetalol, and 2 µM Ketoprofen)) to the spiked plasma samples at the appointed time points. […] Peak area ratios were determined from extracted ion chromatograms. Percent compounds remaining at each time point were calculated by the following equation:Remaining Percentage t h (%) = Peak Area Ratio t h/Peak Area Ratio 0 h × 100 where Peak Area Ratio t h is the peak area ratio of control and test compound at t h; Peak Area Ratio 0 h is the peak area ratio of control and test compound at zero time point.

[3] = Plasma protein binding, equilibrium dialysis, human plasma; type: in vitro ADME; conditions: 1 μM, results similar in human and mouse
Experimental: (§2) Through the plasma protein binding assay, we sought to provide a baseline for future assessment of the ADME-properties of FDM derivative 4. In more detail, this assay would let us evaluate to which extent the FDM derivative 4 would remain in an unbound state in the presence of plasma proteins. These studies were performed through the standard equilibrium dialysis protocol at the time points of 0 and 6 h employing a concentration of 1 μM. While the studies were performed in both human and mouse plasma, the results were similar in both cases. Being a relatively lipophilic species, it was unsurprising that the FDM derivative 4 bound in significant amounts to the plasma proteins (~97% bound vs. 3% unbound).
The working solutions of test compounds were prepared in DMSO at the concentrations of 10 mM and the working solution of control compound ketoconazole was prepared in DMSO at the concentration of 200 μM. 3 μL of the working solutions were removed to mix with 597 μL of plasma to achieve a final concentration of 1 μM or 50 μM (0.5% DMSO). The plasma samples were vortexed thoroughly. […]

[4] = Plasma protein binding, equilibrium dialysis, mouse plasma; type: in vitro ADME; conditions: 1 μM, results similar in human and mouse
Experimental: as §2
The working solutions of test compounds were prepared in DMSO at the concentrations of 10 mM and the working solution of control compound ketoconazole was prepared in DMSO at the concentration of 200 μM. 3 μL of the working solutions were removed to mix with 597 μL of plasma to achieve a final concentration of 1 μM or 50 μM (0.5% DMSO). The plasma samples were vortexed thoroughly. A total of 50 µL of the spiked plasma sample was transferred to 50 μL of blank buffer, and then either incubated for 6 h (37 °C with 5% CO2) or immediately quenched by the addition of 300 μL of RT quench solution (acetonitrile containing internal standards (IS, 200 nM labetalol, 100 nM tolbutamide and 100 nM ketoprofen) to precipitate protein and the mixture was vortex for 5 min.
The dialysis membranes were soaked in ultrapure water for 60 min to separate strips, then in 20% ethanol for 20 min, and finally in dialysis buffer for 20 min. The dialysis apparatus was assembled according to the manufacturer’s instructions. Each cell was filled with 120 μL of spiked plasma sample and dialyzed against equal volume of dialysis buffer (PBS). The assay was performed in duplicate. The dialysis plate was sealed and incubated in an incubator at 37 °C with 5% CO2 at 100 rpm for 6 h. […]

Which IC50 (GLUT1) does the source give for “2-deoxy-2-fluoro-4-O-carboranylmethyl-D-glucopyranose [Compound 2]” here?
Its IC50 is 57.5 µM.

For “2-deoxy-2-fluoro-6-O-carboranylmethyl-D-mannopyranose [Compound 3]”, which IC50 (GLUT1) is on record?
The IC50 was 62.6 µM.

Which IC50 (GLUT1) does the source give for “2-deoxy-2-fluoro-6-O-carboranylmethyl-D-glucopyranose [Compound 1]” here?
Its IC50 is 78.3 µM.

For OC[C@H]1OC(O)[C@H](O)[C@@H](O)[C@@H]1O (stereo partly shown) [D -Glc, reference compound], which IC50 (GLUT1) is on record?
Its IC50 is > 1000 µM.

For “2-deoxy-2-fluoro-4-O-carboranylmethyl-D-mannopyranose [Compound 4]”, which IC50 (GLUT1) is on record?
Its IC50 is 59.5 µM.

And the boron delivery capacity (CAL 27 cells)?
Its boron delivery capacity is “best delivery agent out of the series synthesized”.

What about the conjugate remaining intact ([1]; 1 h) of the same compound?
The conjugate remaining intact was 84.7%.

What about the conjugate remaining intact ([1]; 24 h) of the same compound?
Its conjugate remaining intact is 60%.

What about the “stability in human plasma” value ([2]; 1 h) of the same compound?
The value was “remained stable”.

What about the remained intact ([2]; 4 h) of the same compound?
Its remained intact is 86.7%.

What about the remained intact ([2]; 24 h) of the same compound?
The remained intact was 39.5%.

And the “bound to plasma proteins” value [3]?
The value was ~ 97%.

And the unbound [3]?
The unbound was 3%.

What about the “remained in the bound state” value ([4]; 6 h mark) of the same compound?
Its value is 80–87%.

What about the “bound to plasma proteins” value ([4]; equilibrium dialysis) of the same compound?
The value was ~ 97%.

And the unbound ([4]; equilibrium dialysis)?
Its unbound is 3%.
